# According to patent US20090227507A1, “Angiotensin (1-7) Dosage Forms and Uses Thereof” (UNIVERSITY OF SOUTHERN CALIFORNIA, priority 2008, published 2009):
# Legend:
# [1] = test system: CD34+ cells in peripheral blood; assay: Flow cytometry of peripheral blood, CD34+ progenitor cells; USB003 SC once daily for 7 days in healthy men; assay type: in vivo, human; design: key to Subjects with shift, Absolute CD34, N-L (normal to low) / Subjects with shift, Absolute CD34, N-H (normal to high) / Subjects with shift, Absolute CD34, L-N (low to normal) / Subjects with shift, Absolute CD34, H-N (high to normal): — signifies subject with no shift from baseline; conditions: for Subjects with shift, Absolute CD34, H-N (high to normal) / Subjects with shift, Absolute CD34, L-N (low to normal) / Subjects with shift, Absolute CD34, N-H (normal to high) / Subjects with shift, Absolute CD34, N-L (normal to low) / CD34^+, Absolute, Mean Change from Baseline: 300 μg/kg
# Protocol: (§1) • Single-center, randomized, double-blind, placebo-controlled, 2 cohort dose-escalation trial of once daily dosing over a 7-day period (7 doses total): • Cohort 1: 2 subjects treated with placebo and 8 subjects treated with 200 μg/kg USB003 (A(1-7)) • Cohort 2: 2 subjects treated with placebo and 8 subjects treated with 300 μg/kg USB003 • For each cohort, there was a Screening Period, Treatment Phase, Follow-up Period, and Study Termination or Early Withdrawal Day. Subjects were confined to the study unit during the Treatment Phase. • Cohort 2 was treated approximately 1 week after completion of the Treatment Phase for Cohort 1 to allow time for the assessment of safety and tolerability in the first cohort.
# (§2) Pharmacological Effect: The following evaluations (under efficacy and safety in the protocol) were performed: • Effects on the number of mature blood cells: • 1. CBC (with differential), platelet count, reticulocyte count. • Effects on early hematopoietic progenitor cells and mature lymphocyte subsets in the periphery: • 1. Flow cytometry to evaluate frequency of peripheral blood progenitor cells (eg, CD34^+) and lymphocyte subsets (eg, CD3, CD4, CD8) in peripheral blood. • 2. Collection of blood for later possible culture for progenitor cells (eg, colony forming units-granulocyte/macrophage [CFU-GM]) to evaluate potential effects on CD34^+ hematopoietic progenitor cells in peripheral blood. • 3.
# (§3) The effect of USB003 on the number of mature blood cells was assessed by the complete blood count with differential, platelet and reticulocyte counts. The effects on early hematopoietic progenitor cells and mature lymphocyte subsets in the periphery were assessed by flow cytometry. In addition, blood was collected and processed to enable culture of progenitors at a later time.
# (§4) Red blood cell (RBC) count, RBC indices, white blood cell count (WBC) with differential, reticulocyte count, platelet count, hemoglobin (Hb), hematocrit (Hct), plasma hemoglobin, peripheral flow cytometry, including CD34^+, flow cytometry for enumeration of CD3, CD4, and CD8 lymphocytes, and culture for progenitor cells in peripheral blood including colony-forming units-granulocyte/macrophage (CFU-GM).
# [2] = test system: CD3 cells in peripheral blood; assay: Flow cytometry of peripheral blood, CD3 lymphocytes; USB003 SC once daily for 7 days in healthy men; assay type: in vivo, human; design: key to Subjects with shift, Absolute CD3, N-L (normal to low) / Subjects with shift, Absolute CD3, N-H (normal to high) / Subjects with shift, Absolute CD3, L-N (low to normal) / Subjects with shift, Absolute CD3, H-N (high to normal): — signifies subject with no shift from baseline; conditions: for CD3, Absolute, Mean at Baseline: Baseline (Day 1)
# Protocol: as §1, §2, §3, §4
substance,measurement,setting,value
Asp-Arg-Val-Tyr-Ile-His-Pro [USB003],"Subjects with shift, Absolute CD34, H-N (high to normal)",[1]; Baseline to Day 8,—
same,"Subjects with shift, Absolute CD34, L-N (low to normal)",[1]; Baseline to Day 8,—
same,"Subjects with shift, Absolute CD34, N-H (normal to high)",[1]; Baseline to Day 8,—
same,"Subjects with shift, Absolute CD34, N-L (normal to low)",[1]; Baseline to Day 8,—
same,"Subjects with shift, Absolute CD34, H-N (high to normal)",[1]; Baseline to Day 20,—
same,"Subjects with shift, Absolute CD34, L-N (low to normal)",[1]; Baseline to Day 20,—
same,"Subjects with shift, Absolute CD34, N-H (normal to high)",[1]; Baseline to Day 20,—
same,"Subjects with shift, Absolute CD34, N-L (normal to low)",[1]; Baseline to Day 20,—
same,"CD34^+, Absolute, Mean Change from Baseline",[1]; Day 3,1.80 cells/μL
same,"CD34^+, Absolute, Mean Change from Baseline",[1]; Day 5,0.56 cells/μL
same,"CD34^+, Absolute, Mean Change from Baseline",[1]; Day 7,−0.01 cells/μL
same,"CD34^+, Absolute, Mean Change from Baseline",[1]; Day 8,0.88 cells/μL
same,"CD34^+, Absolute, Mean Change from Baseline",[1]; Day 11,−0.74 cells/μL
same,"CD34^+, Absolute, Mean Change from Baseline",[1]; Day 14,−0.41 cells/μL
same,"CD34^+, Absolute, Mean Change from Baseline",[1]; Day 17,−0.31 cells/μL
same,"CD34^+, Absolute, Mean Change from Baseline",[1]; Day 20,−0.35 cells/μL
same,change in the number of CD34+ cells in the peripheral blood,"[1]; last day of treatment, not observed 12 days after administration",dose-related change
same,"CD3, Absolute, Mean at Baseline",[2]; 200 μg/kg,1732.3 cells/μL
same,"Subjects with shift, Absolute CD3, H-N (high to normal)","[2]; 200 μg/kg, Baseline to Day 8",1
same,"Subjects with shift, Absolute CD3, L-N (low to normal)","[2]; 200 μg/kg, Baseline to Day 8",—
same,"Subjects with shift, Absolute CD3, N-H (normal to high)","[2]; 200 μg/kg, Baseline to Day 8",—
same,"Subjects with shift, Absolute CD3, N-L (normal to low)","[2]; 200 μg/kg, Baseline to Day 8",—
same,"Subjects with shift, Absolute CD3, H-N (high to normal)","[2]; 200 μg/kg, Baseline to Day 20",1
same,"Subjects with shift, Absolute CD3, L-N (low to normal)","[2]; 200 μg/kg, Baseline to Day 20",—
same,"Subjects with shift, Absolute CD3, N-H (normal to high)","[2]; 200 μg/kg, Baseline to Day 20",—
same,"Subjects with shift, Absolute CD3, N-L (normal to low)","[2]; 200 μg/kg, Baseline to Day 20",—
same,"CD3, Absolute, Mean Change from Baseline","[2]; 200 μg/kg, Day 3",−115.8 cells/μL
same,"CD3, Absolute, Mean Change from Baseline","[2]; 200 μg/kg, Day 5",70.6 cells/μL
same,"CD3, Absolute, Mean Change from Baseline","[2]; 200 μg/kg, Day 7",53.9 cells/μL
same,"CD3, Absolute, Mean Change from Baseline","[2]; 200 μg/kg, Day 8",−32.0 cells/μL
same,"CD3, Absolute, Mean Change from Baseline","[2]; 200 μg/kg, Day 11",122.0 cells/μL
same,"CD3, Absolute, Mean Change from Baseline","[2]; 200 μg/kg, Day 14",60.0 cells/μL
same,"CD3, Absolute, Mean Change from Baseline","[2]; 200 μg/kg, Day 17",−121.1 cells/μL
same,"CD3, Absolute, Mean Change from Baseline","[2]; 200 μg/kg, Day 20",−63.6 cells/μL
same,increase in CD3 (pan T cell marker) during study drug administration,"[2]; 300 μg/kg/day, rapidly diminished after cessation of treatment",15-20%
same,"CD3, Absolute, Mean at Baseline",[2]; 300 μg/kg,1285.5 cells/μL
same,"Subjects with shift, Absolute CD3, H-N (high to normal)","[2]; 300 μg/kg, Baseline to Day 8",—
same,"Subjects with shift, Absolute CD3, L-N (low to normal)","[2]; 300 μg/kg, Baseline to Day 8",—
same,"Subjects with shift, Absolute CD3, N-H (normal to high)","[2]; 300 μg/kg, Baseline to Day 8",—
same,"Subjects with shift, Absolute CD3, N-L (normal to low)","[2]; 300 μg/kg, Baseline to Day 8",—
same,"Subjects with shift, Absolute CD3, H-N (high to normal)","[2]; 300 μg/kg, Baseline to Day 20",—
same,"Subjects with shift, Absolute CD3, L-N (low to normal)","[2]; 300 μg/kg, Baseline to Day 20",—
same,"Subjects with shift, Absolute CD3, N-H (normal to high)","[2]; 300 μg/kg, Baseline to Day 20",—
same,"Subjects with shift, Absolute CD3, N-L (normal to low)","[2]; 300 μg/kg, Baseline to Day 20",—
same,"CD3, Absolute, Mean Change from Baseline","[2]; 300 μg/kg, Day 3",167.8 cells/μL
same,"CD3, Absolute, Mean Change from Baseline","[2]; 300 μg/kg, Day 5",159.8 cells/μL
same,"CD3, Absolute, Mean Change from Baseline","[2]; 300 μg/kg, Day 7",229.8 cells/μL
same,"CD3, Absolute, Mean Change from Baseline","[2]; 300 μg/kg, Day 8",67.1 cells/μL
same,"CD3, Absolute, Mean Change from Baseline","[2]; 300 μg/kg, Day 11",−63.5 cells/μL
same,"CD3, Absolute, Mean Change from Baseline","[2]; 300 μg/kg, Day 14",0.3 cells/μL
same,"CD3, Absolute, Mean Change from Baseline","[2]; 300 μg/kg, Day 17",−87.9 cells/μL
same,"CD3, Absolute, Mean Change from Baseline","[2]; 300 μg/kg, Day 20",56.9 cells/μL
